Activity calls are given as the source filed them. The calls are words filed in the database; no cut-off is given here.
What was measured:
KMS-11 [1] = test: Antiproliferative activity against human KMS11 cells over-expressing GFP after 72 hrs by CellTiter-Glo assay; type: functional, cell-based; details: KMS-11, 72 h
[2] = target: T1, Solute carrier family 2, facilitated glucose transporter member 1 (Homo sapiens, UniProt P11166); test: Antagonist activity at human GLUT1 expressed in HEK293 cells transfected with GLUT1 shRNA assessed as inhibition of [3H]2-deoxy-D-glucose uptake preincubated for 5 mins followed by [3H]2-deoxy-D-glucose addition and measured after 6 mins; type: cell-based
T1 sequence (P11166 whole entry): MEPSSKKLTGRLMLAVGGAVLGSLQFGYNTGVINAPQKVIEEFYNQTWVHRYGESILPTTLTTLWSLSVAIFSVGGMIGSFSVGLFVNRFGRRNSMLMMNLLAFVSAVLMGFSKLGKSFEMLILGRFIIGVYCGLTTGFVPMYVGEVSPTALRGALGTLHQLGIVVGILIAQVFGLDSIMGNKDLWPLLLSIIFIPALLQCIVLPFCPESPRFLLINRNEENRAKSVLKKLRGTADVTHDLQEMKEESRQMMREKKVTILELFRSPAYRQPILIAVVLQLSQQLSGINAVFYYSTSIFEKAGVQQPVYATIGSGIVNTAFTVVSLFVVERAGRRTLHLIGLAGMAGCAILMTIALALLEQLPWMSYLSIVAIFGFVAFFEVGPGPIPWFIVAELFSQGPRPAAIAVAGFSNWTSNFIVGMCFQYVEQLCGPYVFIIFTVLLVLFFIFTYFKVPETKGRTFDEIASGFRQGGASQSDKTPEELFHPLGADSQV

[3] = target: T2, Solute carrier family 2, facilitated glucose transporter member 4 (Homo sapiens) (UniProt P14672); test: Antagonist activity at GLUT4 in multiple myeloma patient derived CD38+ and phyocerythrin-negative myeloma cells assessed as increase in sensitivity to ABT-199-induced cytotoxicity by measuring cell death at 10 uM after 48 hrs by CellTiter-Glo assay
T2 sequence (whole entry): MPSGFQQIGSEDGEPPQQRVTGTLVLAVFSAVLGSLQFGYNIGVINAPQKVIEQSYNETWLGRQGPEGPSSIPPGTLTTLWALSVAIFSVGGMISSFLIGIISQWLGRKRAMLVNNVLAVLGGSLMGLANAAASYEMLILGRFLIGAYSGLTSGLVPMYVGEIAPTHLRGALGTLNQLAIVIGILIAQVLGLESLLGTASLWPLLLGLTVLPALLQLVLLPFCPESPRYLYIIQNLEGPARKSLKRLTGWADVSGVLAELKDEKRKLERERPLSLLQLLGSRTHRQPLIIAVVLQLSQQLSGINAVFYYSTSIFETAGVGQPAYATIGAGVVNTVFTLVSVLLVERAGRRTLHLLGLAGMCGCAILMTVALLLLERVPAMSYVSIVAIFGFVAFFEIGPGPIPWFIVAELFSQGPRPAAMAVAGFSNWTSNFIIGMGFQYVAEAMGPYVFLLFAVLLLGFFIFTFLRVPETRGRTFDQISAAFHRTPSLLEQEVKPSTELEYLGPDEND

[4] = target: T2, Solute carrier family 2, facilitated glucose transporter member 4 (Homo sapiens); test: Antagonist activity at GLUT4 in human […] cells assessed as increase in sensitivity to ABT-199-induced cytotoxicity by measuring cell death at 10 uM after 72 hrs by CellTiter-Glo assay; type: cell-based
[5] = target: T3, GLUT1 (solute carrier family 2, facilitated glucose transporter member 1) (Rattus norvegicus, UniProt P11167); test: Displacement of ATB-BMPA from rat C-terminal 6His/Myc-tagged GLUT1 expressed in HEK293 cell low density microsome assessed as ATB-BMPA binding level at 20 uM preincubated for 10 mins followed by ATB-BMPA addition measured after 10 mins relative to control; type: cell-based; details: probe ATB-BMPA, read-out: Activity
T3 sequence (P11167 whole entry): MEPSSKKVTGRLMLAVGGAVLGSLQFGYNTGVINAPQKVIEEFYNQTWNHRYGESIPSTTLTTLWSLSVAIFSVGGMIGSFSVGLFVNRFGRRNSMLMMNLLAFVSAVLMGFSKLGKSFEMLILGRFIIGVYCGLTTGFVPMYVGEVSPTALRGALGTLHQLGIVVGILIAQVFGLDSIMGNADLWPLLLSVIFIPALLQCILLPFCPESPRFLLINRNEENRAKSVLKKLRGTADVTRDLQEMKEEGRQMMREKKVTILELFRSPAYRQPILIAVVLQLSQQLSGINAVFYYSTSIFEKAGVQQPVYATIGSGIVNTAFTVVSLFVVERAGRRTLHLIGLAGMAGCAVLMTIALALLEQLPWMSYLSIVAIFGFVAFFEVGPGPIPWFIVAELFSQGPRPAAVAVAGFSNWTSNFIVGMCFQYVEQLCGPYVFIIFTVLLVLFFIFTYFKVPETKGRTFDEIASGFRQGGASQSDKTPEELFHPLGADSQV

[6] = target: T4, Solute carrier family 2, facilitated glucose transporter member 8 (Homo sapiens, UniProt Q9NY64); test: Antagonist activity at human GLUT8 expressed in HEK293 cells transfected with GLUT1 shRNA assessed as inhibition of [3H]2-deoxy-D-glucose uptake preincubated for 5 mins followed by [3H]2-deoxy-D-glucose addition and measured after 6 mins; type: cell-based
T4 sequence (Q9NY64 whole entry): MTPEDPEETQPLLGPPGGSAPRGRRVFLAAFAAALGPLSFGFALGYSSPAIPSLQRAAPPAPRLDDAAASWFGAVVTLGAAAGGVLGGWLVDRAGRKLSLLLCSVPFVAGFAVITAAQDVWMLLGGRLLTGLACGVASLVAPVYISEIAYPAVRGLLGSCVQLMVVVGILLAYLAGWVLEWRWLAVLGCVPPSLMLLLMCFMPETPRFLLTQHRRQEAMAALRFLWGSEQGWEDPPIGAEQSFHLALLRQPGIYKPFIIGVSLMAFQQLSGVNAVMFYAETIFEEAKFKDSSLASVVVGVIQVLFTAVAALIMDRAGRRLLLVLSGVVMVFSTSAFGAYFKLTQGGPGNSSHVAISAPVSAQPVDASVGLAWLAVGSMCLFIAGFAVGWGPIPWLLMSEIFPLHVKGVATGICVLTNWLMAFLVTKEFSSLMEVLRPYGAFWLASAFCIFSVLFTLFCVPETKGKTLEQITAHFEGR

[7] = target: T5, Solute carrier family 2, facilitated glucose transporter member 4 (Rattus norvegicus) (UniProt P19357); test: Displacement of ATB-BMPA from rat C-terminal 6His/Myc-tagged GLUT4 expressed in HEK293 cell low density microsome assessed as ATB-BMPA binding level at 20 uM preincubated for 10 mins followed by ATB-BMPA addition measured after 10 mins relative to control; type: cell-based
T5 sequence (whole entry): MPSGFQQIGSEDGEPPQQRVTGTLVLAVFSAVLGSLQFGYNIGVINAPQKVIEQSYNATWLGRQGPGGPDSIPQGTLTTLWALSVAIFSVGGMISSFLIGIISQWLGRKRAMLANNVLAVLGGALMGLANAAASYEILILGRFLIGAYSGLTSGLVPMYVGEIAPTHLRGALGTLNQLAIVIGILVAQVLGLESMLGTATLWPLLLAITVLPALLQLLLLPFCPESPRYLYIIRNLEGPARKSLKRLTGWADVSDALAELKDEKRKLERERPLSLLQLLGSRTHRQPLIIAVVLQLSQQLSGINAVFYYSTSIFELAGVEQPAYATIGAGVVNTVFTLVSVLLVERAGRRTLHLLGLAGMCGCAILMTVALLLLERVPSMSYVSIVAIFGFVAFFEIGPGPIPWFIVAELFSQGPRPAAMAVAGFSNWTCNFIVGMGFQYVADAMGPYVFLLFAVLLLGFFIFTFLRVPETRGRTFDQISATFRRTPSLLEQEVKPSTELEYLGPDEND

Bone marrow cell [8] = test: Cytotoxicity in multiple myeloma patient derived CD38(-)/CD45(-) non-myeloma bone marrow cells at 10 uM in presence of ABT-199 incubated for 48 hrs by CellTiter-Glo assay; type: cell-based; details: human
[9] = target: T2, Solute carrier family 2, facilitated glucose transporter member 4 (Homo sapiens); test: Antagonist activity at GLUT4 in human JJN-3 cells assessed as reduction in MCL-1 protein expression at 15 uM after 18 hrs by immunoblot analysis; type: cell-based
[10] = target: T2, Solute carrier family 2, facilitated glucose transporter member 4 (Homo sapiens); test: Antagonist activity at GLUT4 in multiple myeloma patient derived CD38+ and phyocerythrin-negative myeloma cells assessed as increase in sensitivity to dexamethasone-induced cytotoxicity by measuring cell death at 10 uM after 48 hrs by CellTiter-Glo assay
Bone marrow cell [11] = test: Cytotoxicity in multiple myeloma patient derived CD38(-)/CD45(-) non-myeloma bone marrow cells at 10 uM incubated for 48 hrs by CellTiter-Glo assay; type: cell-based; details: human
[12] = target: T2, Solute carrier family 2, facilitated glucose transporter member 4 (Homo sapiens); test: Antagonist activity at GLUT4 in human JJN-3 cells assessed as increase in sensitivity to ABT-199-induced cytotoxicity by measuring cell death at 10 uM after 72 hrs by CellTiter-Glo assay; type: cell-based
[13] = target: T2, Solute carrier family 2, facilitated glucose transporter member 4 (Homo sapiens); test: Antagonist activity at GLUT4 in human MM1S cells assessed as increase in sensitivity to dexamethasone-induced cytotoxicity by measuring cell death at 10 uM after 72 hrs by CellTiter-Glo assay; type: cell-based
[14] = target: T2, Solute carrier family 2, facilitated glucose transporter member 4 (Homo sapiens); test: Antagonist activity at GLUT4 in human JJN3 cells assessed as reduction in [3H]2-deoxy-D-glucose uptake preincubated for 5 to 6 mins followed by [3H]2-deoxy-D-glucose addition measured after 4 to 6 mins; type: cell-based
Bone marrow cell [15] = test: Cytotoxicity in multiple myeloma patient derived CD38(-)/CD45(-) non-myeloma bone marrow cells at 10 uM in presence of dexamethasone incubated for 48 hrs by CellTiter-Glo assay; type: cell-based; details: human
KMS-11 [16] = test: Cytotoxicity against human KMS11 cells after 72 hrs by AnnexinV/DAPI staining-based flow cytometric analysis; type: functional, cell-based
[17] = target: T2, Solute carrier family 2, facilitated glucose transporter member 4 (Homo sapiens); test: Antagonist activity at GLUT4 in human MM1S cells assessed as increase in sensitivity to melphalan-induced cytotoxicity by measuring cell death at 10 uM after 72 hrs by CellTiter-Glo assay; type: cell-based
[18] = target: T2, Solute carrier family 2, facilitated glucose transporter member 4 (Homo sapiens); test: Antagonist activity at GLUT4 in human L363 cells assessed as reduction in MCL-1 protein expression at 15 uM after 18 hrs by immunoblot analysis; type: cell-based
JJN-3 [19] = test: Antiproliferative activity against human JJN-3 cells transfected with GLUT4 shRNA assessed as growth inhibition at 15 uM aftter 72 hrs by trypan blue dye-based cell counting analysis; type: functional
JJN-3 [20] = test: Inhibition of [3H]2-deoxy-D-glucose uptake in human JJN-3 cells transfected with GLUT4 shRNA preincubated for 5 to 6 mins followed by [3H]2-deoxy-D-glucose addition measured after 4 to 6 mins; type: functional, cell-based
[21] = target: T6, Solute carrier family 2, facilitated glucose transporter member 4 (Homo sapiens, UniProt P14672); test: Antagonist activity at human GLUT4 expressed in HEK293 cells transfected with GLUT1 shRNA assessed as inhibition of [3H]2-deoxy-D-glucose uptake preincubated for 5 mins followed by [3H]2-deoxy-D-glucose addition and measured after 6 mins; type: cell-based
T6 sequence (P14672 whole entry): T2 sequence (whole entry)

COc1ccc(C(=O)N(Cc2ccncc2)Cc2cccc(OCC(=O)c3cccc(Br)c3)c2)cc1
IC50 (KMS-11 [1]): 18.7 µM

O=C(c1ccc(Cl)cc1)N(Cc1ccncc1)Cc1cccc(OCCc2ccc(F)cc2)c1
IC50 (KMS-11 [1]): 13.1 µM

COc1ccc(C(=O)N(Cc2ccncc2)Cc2cccc(OCC3CCN(C(=O)OC(C)(C)C)CC3)c2)cc1
IC50 (KMS-11 [1]): 5.1 µM

COc1ccc(C(=O)N(Cc2ccncc2)Cc2cccc(OCCc3cccc(C(F)(F)F)c3)c2)cc1
IC50 (KMS-11 [1]): 8.9 µM

COc1ccc(CC(=O)N(Cc2ccncc2)Cc2cccc(OCCc3ccc(F)cc3)c2)cc1
IC50 [2]: > 100 µM | inhibition [3]: Active | inhibition [4]: Active | activity at 10 min, 20 µM [5]: 35% | IC50 [6]: > 100 µM | Activity [7]: 64% | Activity (Bone marrow cell [8]): Non-Toxic | inhibition [9]: inactive | inhibition [10]: Active | Activity (Bone marrow cell [11]): Non-Toxic | inhibition [12]: Active | IC50 (KMS-11 [1]): 13.4 µM | inhibition [13]: Active | inhibition [14]: Active | Activity (Bone marrow cell [15]): Non-Toxic | Activity (KMS-11 [16]): Active | Activity [17]: Active | inhibition [18]: Active | Activity (JJN-3 [19]): inactive | inhibition (JJN-3 [20]): Active

COc1ccc(C(=O)N(Cc2ccncc2)Cc2cccc(OCCc3ccc(Br)cc3)c2)cc1
IC50 (KMS-11 [1]): 8.4 µM

COc1ccc(C(=O)N(Cc2ccncc2)Cc2cccc(OCc3ccc(F)cc3)c2)cc1
IC50 (KMS-11 [1]): 22.7 µM

COc1ccc(C(=O)N(Cc2ccncc2)Cc2cccc(OCC(=O)c3ccc(Cl)cc3)c2)cc1
IC50 (KMS-11 [1]): 18.5 µM

Oc1cccc(CNCc2ccncc2)c1
IC50 [2]: > 100 µM | IC50 [6]: > 100 µM | IC50 [21]: 20 µM

COc1ccc(C(=O)N(Cc2ccncc2)Cc2cccc(OCCc3ccccc3)c2)cc1
IC50 (KMS-11 [1]): 16.9 µM
